Reference: ChEMBL document CHEMBL1201861, “Genomics of Drug Sensitity in Cancer screening data, Wellcome Trust Sanger Institute”

Tests used:
Experiment in all cases: cells
Settings in all cases: Homo sapiens
[1] = system: KYSE-410; type: functional, cell-based;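 further: growth inhibition of KYSE-410 cells, measured through a cell viability readout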
Description: SANGER: Inhibition of human KYSE-410 cell growth in a cell viability assay.

[2] = system: MV4-11; type: functional, cell-based, MV-4-11;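 further: cell viability readout measuring growth inhibition of human MV-4-11 cells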
Description: SANGER: Inhibition of human MV-4-11 cell growth in a cell viability assay.

[3] = system: LB2241-RCC; type: functional, cell-based;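 further: cell viability assay measuring how strongly the cultured human renal carcinoma line is prevented from growing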
Description: SANGER: Inhibition of human LB2241-RCC cell growth in a cell viability assay.

[4] = system: M14; type: functional, cell-based;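 further: growth inhibition of M14 cells, read out with a cell viability assay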
Description: SANGER: Inhibition of human M14 cell growth in a cell viability assay.

[5] = system: KURAMOCHI; type: functional, cell-based;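 further: growth inhibition of KURAMOCHI cells, read out with a cell viability assay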
Description: SANGER: Inhibition of human KURAMOCHI cell growth in a cell viability assay.

[6] = system: CAS-1; type: functional, cell-based;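 further: growth inhibition of CAS-1 cells, measured with a cell viability assay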
Description: SANGER: Inhibition of human CAS-1 cell growth in a cell viability assay.

[7] = system: KG-1; type: functional, cell-based;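 further: growth inhibition of KG-1 cells, read out by a cell viability assay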
Description: SANGER: Inhibition of human KG-1 cell growth in a cell viability assay.

[8] = system: NH-12; type: functional, cell-based;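 further: growth inhibition of NH-12 cells, read out with a cell viability assay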
Description: SANGER: Inhibition of human NH-12 cell growth in a cell viability assay.

[9] = system: NCI-H69; type: functional, cell-based;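 further: growth inhibition of the cell line, read out with a cell viability assay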
Description: SANGER: Inhibition of human NCI-H69 cell growth in a cell viability assay.

[10] = system: EKVX; type: functional, cell-based;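 further: growth inhibition of human EKVX cells, read out with a cell viability assay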
Description: SANGER: Inhibition of human EKVX cell growth in a cell viability assay.

[11] = system: LU-134-A; type: functional, cell-based
Description: SANGER: Inhibition of human LU-134-A cell growth in a cell viability assay.

[12] = system: IST-MES1; type: functional, cell-based;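 further: growth inhibition of IST-MES1 cells, measured with a cell viability assay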
Description: SANGER: Inhibition of human IST-MES1 cell growth in a cell viability assay.

[13] = system: ES6; type: functional, cell-based;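 further: growth inhibition of human ES6 cells, read out with a cell viability assay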
Description: SANGER: Inhibition of human ES6 cell growth in a cell viability assay.

[14] = system: NCI-H23; type: functional, cell-based;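 further: cell viability assay measuring growth inhibition of NCI-H23 cells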
Description: SANGER: Inhibition of human NCI-H23 cell growth in a cell viability assay.

[15] = system: KARPAS-299; type: functional, cell-based
Description: SANGER: Inhibition of human KARPAS-299 cell growth in a cell viability assay.

[16] = system: NKM-1; type: functional, cell-based;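 further: growth inhibition of NKM-1 cells, read out with a cell viability assay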
Description: SANGER: Inhibition of human NKM-1 cell growth in a cell viability assay.

[17] = system: LAN-6; type: functional, cell-based;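 further: growth inhibition of LAN-6 cells, determined with a cell viability assay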
Description: SANGER: Inhibition of human LAN-6 cell growth in a cell viability assay.

[18] = system: TE-11; type: functional, cell-based;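 further: growth inhibition of human TE-11 cells, read out by a cell viability assay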
Description: SANGER: Inhibition of human TE-11 cell growth in a cell viability assay.

[19] = system: OVCAR-4; type: functional, cell-based;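 further: growth inhibition of human OVCAR-4 cells, measured with a cell viability assay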
Description: SANGER: Inhibition of human OVCAR-4 cell growth in a cell viability assay.

[20] = system: SF-268; type: functional, cell-based;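 further: growth inhibition of SF-268 cells determined with a cell viability assay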
Description: SANGER: Inhibition of human SF268 cell growth in a cell viability assay.

[21] = system: LB2518-MEL; type: functional, cell-based;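 further: growth inhibition of human LB2518-MEL cells, measured with a cell viability assay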
Description: SANGER: Inhibition of human LB2518-MEL cell growth in a cell viability assay.

[22] = system: LU-99A; type: functional, cell-based;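 further: growth inhibition of LU-99A cells, read out with a cell viability assay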
Description: SANGER: Inhibition of human LU-99A cell growth in a cell viability assay.

[23] = system: TE-1; type: functional, cell-based;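 further: growth inhibition of the human TE-1 cell line, read out with a cell viability assay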
Description: SANGER: Inhibition of human TE-1 cell growth in a cell viability assay.

[24] = system: SK-MEL-1; type: functional, cell-based;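 further: growth inhibition of human SK-MEL-1 cells, read out by a cell viability assay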
Description: SANGER: Inhibition of human SK-MEL-1 cell growth in a cell viability assay.

[25] = system: TGBC1TKB; type: functional, cell-based;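 further: growth inhibition of TGBC1TKB cells, read out by a cell viability assay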
Description: SANGER: Inhibition of human TGBC1TKB cell growth in a cell viability assay.

[26] = system: PANC-08-13; type: functional, cell-based;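 further: cell growth inhibition, measured with a cell viability assay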
Description: SANGER: Inhibition of human PANC-08-13 cell growth in a cell viability assay.

[27] = system: no-11; type: functional, cell-based;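 further: growth inhibition of human NO-11 cells, read out with a cell viability assay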
Description: SANGER: Inhibition of human no-11 cell growth in a cell viability assay.

[28] = system: SH-4; type: functional, cell-based;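 further: growth inhibition of SH-4 cells, read out with a cell viability assay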
Description: SANGER: Inhibition of human SH-4 cell growth in a cell viability assay.

[29] = system: ATN-1; type: functional, cell-based;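 further: growth inhibition of human ATN-1 cells, read out with a cell viability assay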
Description: SANGER: Inhibition of human ATN-1 cell growth in a cell viability assay.

[30] = system: HEL; type: functional, cell-based;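 further: growth inhibition of HEL cells, read out with a cell viability assay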
Description: SANGER: Inhibition of human HEL cell growth in a cell viability assay.

[31] = system: EW-11; type: functional, cell-based;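 further: growth inhibition of human EW-11 cells, measured with a cell viability assay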
Description: SANGER: Inhibition of human EW-11 cell growth in a cell viability assay.

[32] = system: EFM-19; type: functional, cell-based;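 further: growth inhibition of human EFM-19 cells, measured in a cell viability assay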
Description: SANGER: Inhibition of human EFM-19 cell growth in a cell viability assay.

[33] = system: GB-1; type: functional, cell-based;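 further: growth of GB-1 cells judged by a viability assay, IC50 marks the concentration inhibiting growth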
Description: SANGER: Inhibition of human GB-1 cell growth in a cell viability assay.

[34] = system: NCI-H446; type: functional, cell-based;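 further: growth inhibition of NCI-H446 cells determined by a cell viability assay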
Description: SANGER: Inhibition of human NCI-H446 cell growth in a cell viability assay.

[35] = system: MN-60; type: functional, cell-based;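 further: growth inhibition of the MN-60 cell line, determined with a cell viability assay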
Description: SANGER: Inhibition of human MN-60 cell growth in a cell viability assay.

[36] = system: NCI-H1770; type: functional, cell-based;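 further: growth inhibition of NCI-H1770 cells determined with a viability readout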
Description: SANGER: Inhibition of human NCI-H1770 cell growth in a cell viability assay.

[37] = system: P30-OHK; type: functional, cell-based;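 further: growth inhibition of the P30-OHK cell line, read out with a cell viability assay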
Description: SANGER: Inhibition of human P30-OHK cell growth in a cell viability assay.

[38] = system: NCI-H1092; type: functional, cell-based;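 further: cell growth inhibition measured with a cell viability assay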
Description: SANGER: Inhibition of human NCI-H1092 cell growth in a cell viability assay.

[39] = system: RXF 393; type: functional, cell-based;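 further: growth inhibition of human RXF 393 cells, read out with a cell viability assay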
Description: SANGER: Inhibition of human RXF393 cell growth in a cell viability assay.

[40] = system: RCC10RGB; type: functional, cell-based;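 further: growth inhibition of human RCC10RGB cells, read out by a cell viability assay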
Description: SANGER: Inhibition of human RCC10RGB cell growth in a cell viability assay.

[41] = system: NCI-H526; type: functional, cell-based;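 further: growth inhibition of the human NCI-H526 cell line, measured by a cell viability assay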
Description: SANGER: Inhibition of human NCI-H526 cell growth in a cell viability assay.

[42] = system: PSN1; type: functional, cell-based;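 further: suppression of growth of human PSN1 cells, read out by a cell viability assay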
Description: SANGER: Inhibition of human PSN1 cell growth in a cell viability assay.

[43] = system: KGN; type: functional, cell-based;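 further: growth inhibition of KGN cells, read out with a cell viability assay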
Description: SANGER: Inhibition of human KGN cell growth in a cell viability assay.

[44] = system: NCI-H1838; type: functional, cell-based;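 further: growth inhibition of NCI-H1838 cells, determined with a cell viability readout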
Description: SANGER: Inhibition of human NCI-H1838 cell growth in a cell viability assay.

[45] = system: VM-CUB-1; type: functional, cell-based;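 further: cell viability assay measuring growth inhibition of the human VM-CUB-1 cell line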
Description: SANGER: Inhibition of human VM-CUB-1 cell growth in a cell viability assay.

[46] = system: HuP-T4; type: functional, cell-based;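 further: cell viability assay measuring how much HuP-T4 cell growth is inhibited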
Description: SANGER: Inhibition of human HuP-T4 cell growth in a cell viability assay.

[47] = system: EFO-21; type: functional, cell-based;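 further: growth inhibition of EFO-21 cells measured with a viability assay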
Description: SANGER: Inhibition of human EFO-21 cell growth in a cell viability assay.

[48] = system: NCI-H1355; type: functional, cell-based;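 further: growth inhibition of human NCI-H1355 cells, read out by a cell viability assay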
Description: SANGER: Inhibition of human NCI-H1355 cell growth in a cell viability assay.

[49] = system: EW-13; type: functional, cell-based;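 further: growth inhibition of EW-13 cells, read out with a cell viability assay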
Description: SANGER: Inhibition of human EW-13 cell growth in a cell viability assay.

[50] = system: SK-N-FI; type: functional, cell-based
Description: SANGER: Inhibition of human SK-N-FI cell growth in a cell viability assay.

[51] = system: NCI-H720; type: functional, cell-based
Description: SANGER: Inhibition of human NCI-H720 cell growth in a cell viability assay.

[52] = system: A498; type: functional, cell-based
Description: SANGER: Inhibition of human A498 cell growth in a cell viability assay.

[53] = system: COLO-320-HSR; type: functional, cell-based
Description: SANGER: Inhibition of human COLO-320-HSR cell growth in a cell viability assay.

[54] = system: G-401; type: functional, cell-based
Description: SANGER: Inhibition of human G-401 cell growth in a cell viability assay.

[55] = system: LU-139; type: functional, cell-based
Description: SANGER: Inhibition of human LU-139 cell growth in a cell viability assay.

[56] = system: SW982; type: functional, cell-based
Description: SANGER: Inhibition of human SW982 cell growth in a cell viability assay.

[57] = system: Lu-65; type: functional, cell-based
Description: SANGER: Inhibition of human LU-65 cell growth in a cell viability assay.

[58] = system: EC-GI-10; type: functional, cell-based
Description: SANGER: Inhibition of human EC-GI-10 cell growth in a cell viability assay.

[59] = system: SCH; type: functional, cell-based
Description: SANGER: Inhibition of human SCH cell growth in a cell viability assay.

[60] = system: SK-MEL-2; type: functional, cell-based
Description: SANGER: Inhibition of human SK-MEL-2 cell growth in a cell viability assay.

[61] = system: HH; type: functional, cell-based
Description: SANGER: Inhibition of human HH cell growth in a cell viability assay.

[62] = system: L-363; type: functional, cell-based
Description: SANGER: Inhibition of human L-363 cell growth in a cell viability assay.

[63] = system: LS-123; type: functional, cell-based
Description: SANGER: Inhibition of human LS-123 cell growth in a cell viability assay.

[64] = system: SJSA-1; type: functional, cell-based
Description: SANGER: Inhibition of human SJSA-1 cell growth in a cell viability assay.

SMILES: CO[C@@]12[C@H](COC(N)=O)C3=C(C(=O)C(C)=C(N)C3=O)N1C[C@@H]1N[C@@H]12 [MITOMYCIN]
- IC50 [1]: 584 nM
- IC50 [2]: < 62.5 nM
- IC50 [3]: < 62.5 nM
- IC50 [4]: 1340 nM
- IC50 [5]: 523 nM
- IC50 [6]: 3380 nM
- IC50 [7]: 597 nM
- IC50 [8]: 139 nM
- IC50 [9]: 1680 nM
- IC50 [10]: 893 nM
- IC50 [11]: 46.7 nM
- IC50 [12]: 4150 nM
- IC50 [13]: 746 nM
- IC50 [14]: 1210 nM
- IC50 [15]: 1420 nM
- IC50 [16]: < 62.5 nM
- IC50 [17]: 328 nM
- IC50 [18]: 91.8 nM
- IC50 [19]: 697 nM
- IC50 [20]: 171 nM
- IC50 [21]: 535 nM
- IC50 [22]: 224 nM
- IC50 [23]: 165 nM
- IC50 [24]: 1890 nM
- IC50 [25]: 1210 nM
- IC50 [26]: 2400 nM
- IC50 [27]: 7740 nM
- IC50 [28]: 387 nM
- IC50 [29]: 17.4 nM
- IC50 [30]: 35.8 nM
- IC50 [31]: 513 nM
- IC50 [32]: 2090 nM
- IC50 [33]: 452 nM
- IC50 [34]: 12400 nM
- IC50 [35]: 1260 nM
- IC50 [36]: 343 nM
- IC50 [37]: < 62.5 nM
- IC50 [38]: 3280 nM
- IC50 [39]: 4390 nM
- IC50 [40]: 1350 nM
- IC50 [41]: 67.4 nM
- IC50 [42]: < 62.5 nM
- IC50 [43]: 207 nM
- IC50 [44]: 404 nM
- IC50 [45]: 261 nM
- IC50 [46]: 108 nM
- IC50 [47]: 591 nM
- IC50 [48]: 117 nM
- IC50 [49]: 52.5 nM
- IC50 [50]: > 16000 nM
- IC50 [51]: 1540 nM
- IC50 [52]: > 16000 nM
- IC50 [53]: 1080 nM
- IC50 [54]: 634 nM
- IC50 [55]: 1220 nM
- IC50 [56]: 105 nM
- IC50 [57]: 1010 nM
- IC50 [58]: 14900 nM
- IC50 [59]: > 16000 nM
- IC50 [60]: 3970 nM
- IC50 [61]: 1070 nM
- IC50 [62]: 434 nM
- IC50 [63]: 1720 nM
- IC50 [64]: 132 nM

SMILES: C/C=C(/C)C(=O)O[C@H]1C(C)=C2[C@H]([C@@H]1OC(=O)CCCCCCC)[C@@](C)(OC(C)=O)C[C@H](OC(=O)CCC)[C@@]1(O)[C@H]2OC(=O)[C@@]1(C)O [THAPSIGARGIN]
- IC50 [1]: < 2 nM
- IC50 [2]: 11 nM
- IC50 [3]: 66 nM
- IC50 [4]: 14 nM
- IC50 [5]: 5.44 nM
- IC50 [6]: 118 nM
- IC50 [7]: 67.4 nM
- IC50 [8]: 24 nM
- IC50 [9]: 56.7 nM
- IC50 [10]: 250 nM
- IC50 [11]: 93.3 nM
- IC50 [12]: 138 nM
- IC50 [13]: < 2 nM
- IC50 [14]: > 512 nM
- IC50 [15]: 35.6 nM
- IC50 [16]: 6.12 nM
- IC50 [17]: > 512 nM
- IC50 [18]: 9.14 nM
- IC50 [19]: 2.93 nM
- IC50 [20]: 2.26 nM
- IC50 [21]: 17.3 nM
- IC50 [22]: 1.36 nM
- IC50 [23]: 22 nM
- IC50 [24]: > 512 nM
- IC50 [25]: 0.509 nM
- IC50 [26]: 23.8 nM
- IC50 [27]: 58.9 nM
- IC50 [28]: 17.8 nM
- IC50 [29]: 32 nM
- IC50 [30]: 46.3 nM
- IC50 [31]: 54.8 nM
- IC50 [32]: > 512 nM
- IC50 [33]: 114 nM
- IC50 [34]: 35.4 nM
- IC50 [35]: 69.2 nM
- IC50 [36]: 25.7 nM
- IC50 [37]: 2.08 nM
- IC50 [38]: > 512 nM
- IC50 [39]: > 512 nM
- IC50 [40]: > 512 nM
- IC50 [41]: 34 nM
- IC50 [42]: < 2 nM
- IC50 [43]: < 2 nM
- IC50 [44]: > 512 nM
- IC50 [45]: 22 nM
- IC50 [46]: 1.3 nM
- IC50 [47]: 16.4 nM
- IC50 [48]: 5.48 nM
- IC50 [49]: 2.31 nM
- IC50 [50]: 88.2 nM
- IC50 [51]: > 512 nM
- IC50 [52]: > 512 nM
- IC50 [53]: 48 nM
- IC50 [54]: 25.1 nM
- IC50 [55]: 33.6 nM
- IC50 [56]: < 2 nM
- IC50 [57]: 8.49 nM
- IC50 [58]: 355 nM
- IC50 [59]: > 512 nM
- IC50 [60]: < 2 nM
- IC50 [61]: 95.9 nM
- IC50 [62]: 0.833 nM
- IC50 [63]: 6.23 nM
- IC50 [64]: 3 nM
